# “Also recorded” adds a separate entry of the source.
# Assay: Safety and tolerability
# Assay type: in vivo, Japanese patients
# Settings: for Overall safety and tolerability: adult Japanese patients with r/r B‐cell malignancies
smiles,measurement,setting,value
CC#CC(=O)N1CCC[C@H]1c1nc(-c2ccc(C(=O)Nc3ccccn3)cc2)c2c(N)nccn12 [acalabrutinib],Overall safety and tolerability,100 mg BID,safe and well‐tolerated
same,Overall safety and tolerability,"100 mg BID, listed as Acalabrutinib",generally safe and well‐tolerated
same,Dose‐limiting toxicities (DLTs),"100 mg BID, part 1",No DLTs were observed
same,AE of clinical interest: Anemia,Part 1 (N = 6),2 (33.3) n (%)
same,AE of clinical interest: Atrial fibrillation,Part 1 (N = 6),0 n (%)
same,AE of clinical interest: Cardiac events,Part 1 (N = 6),0 n (%)
same,AE of clinical interest: Hemorrhage,Part 1 (N = 6),0 n (%)
same,AE of clinical interest: Hepatotoxicity,Part 1 (N = 6),0 n (%)
same,AE of clinical interest: Infections,Part 1 (N = 6),6 (100.0) n (%)
same,AE of clinical interest: Interstitial lung disease/pneumonitis,Part 1 (N = 6),1 (16.7) n (%)
same,AE of clinical interest: Leukopenia,Part 1 (N = 6),1 (16.7) n (%)
same,AE of clinical interest: Neutropenia,Part 1 (N = 6),1 (16.7) n (%)
same,AE of clinical interest: Other hemorrhage,Part 1 (N = 6),0 n (%)
same,AE of clinical interest: Other leukopenia,Part 1 (N = 6),0 n (%)
same,AE of clinical interest: Second primary malignancies (excl. nonmelanoma skin cancer),Part 1 (N = 6),1 (16.7) n (%)
same,AE of clinical interest: Second primary malignancy,Part 1 (N = 6),1 (16.7) n (%)
same,AE of clinical interest: Thrombocytopenia,Part 1 (N = 6),1 (16.7) n (%)
same,AE of clinical interest: Tumor lysis syndrome,Part 1 (N = 6),0 n (%)
same,Patients with any AE of clinical interest,Part 1 (N = 6),6 (100.0) n (%)
same,Patients with any SAE,Part 1 (N = 6),3 (50.0) n (%)
same,SAE: Abdominal pain upper,Part 1 (N = 6),0 n (%)
same,SAE: Anemia,Part 1 (N = 6),1 (16.7) n (%)
same,SAE: Blood and lymphatic system disorders,Part 1 (N = 6),1 (16.7) n (%)
same,SAE: Colon cancer,Part 1 (N = 6),1 (16.7) n (%)
same,SAE: Gastrointestinal disorders,Part 1 (N = 6),0 n (%)
same,SAE: Infections and infestations,Part 1 (N = 6),1 (16.7) n (%)
same,"SAE: Neoplasms benign, malignant, and unspecified (incl. cysts and polyps)",Part 1 (N = 6),1 (16.7) n (%)
same,SAE: Pneumonia,Part 1 (N = 6),1 (16.7) n (%)
same,AE of clinical interest,Total (N = 25),95 Total number of AEs
same,AE of clinical interest: Anemia,Total (N = 25),6 (24.0) n (%)
same,AE of clinical interest: Atrial fibrillation,Total (N = 25),1 (4.0) n (%)
same,AE of clinical interest: Cardiac events,Total (N = 25),1 (4.0) n (%)
same,AE of clinical interest: Hemorrhage,Total (N = 25),8 (32.0) n (%)
same,AE of clinical interest: Hepatotoxicity,Total (N = 25),3 (12.0) n (%)
same,AE of clinical interest: Infections,Total (N = 25),16 (64.0) n (%)
same,AE of clinical interest: Interstitial lung disease/pneumonitis,Total (N = 25),1 (4.0) n (%)
same,AE of clinical interest: Leukopenia,Total (N = 25),7 (28.0) n (%)
same,AE of clinical interest: Neutropenia,Total (N = 25),6 (24.0) n (%)
same,AE of clinical interest: Other hemorrhage,Total (N = 25),8 (32.0) n (%)
same,AE of clinical interest: Other leukopenia,Total (N = 25),3 (12.0) n (%)
same,AE of clinical interest: Second primary malignancies (excl. nonmelanoma skin cancer),Total (N = 25),1 (4.0) n (%)
same,AE of clinical interest: Second primary malignancy,Total (N = 25),1 (4.0) n (%)
same,AE of clinical interest: Thrombocytopenia,Total (N = 25),5 (20.0) n (%)
same,AE of clinical interest: Tumor lysis syndrome,Total (N = 25),1 (4.0) n (%)
same,Patients with any AE of clinical interest,Total (N = 25),22 (88.0) n (%)
same,Patients with any SAE,Total (N = 25),6 (24.0) n (%)
same,SAE: Abdominal pain upper,Total (N = 25),1 (4.0) n (%)
same,SAE: Anemia,Total (N = 25),1 (4.0) n (%)
same,SAE: Blood and lymphatic system disorders,Total (N = 25),1 (4.0) n (%)
same,SAE: Colon cancer,Total (N = 25),1 (4.0) n (%)
same,SAE: Gastrointestinal disorders,Total (N = 25),1 (4.0) n (%)
same,SAE: Infections and infestations,Total (N = 25),3 (12.0 n (%)
same,"SAE: Neoplasms benign, malignant, and unspecified (incl. cysts and polyps)",Total (N = 25),1 (4.0) n (%)
same,SAE: Pneumonia,Total (N = 25),3 (12.0) n (%)
same,"AEs of clinical interest, patients",all 25 treated patients,88%
same,AEs resulting in treatment discontinuation or death,all 25 treated patients,No AEs resulted in treatment discontinuation or death; also recorded: No AEs with the outcome of death or AEs/SAEs leading to treatment discontinuation were reported
same,"Grade 4 AEs, patients",all 25 treated patients,20%
same,"Headache (any AE), patients",all 25 treated patients,32%
same,"Rash (any AE), patients",all 25 treated patients,28%
same,"SAEs related to treatment, patients",all 25 treated patients,16%
same,"Serious adverse events (SAEs), patients",all 25 treated patients,24%
same,"Treatment‐related adverse events, patients",all 25 treated patients,88%
same,"Treatment‐related headache, patients",all 25 treated patients,28%
same,"Treatment‐related purpura, patients",all 25 treated patients,24%
same,AE of clinical interest: Anemia,r/r CLL/SLL cohort (N = 9),2 (22.2) n (%)
same,AE of clinical interest: Atrial fibrillation,r/r CLL/SLL cohort (N = 9),0 n (%)
same,AE of clinical interest: Cardiac events,r/r CLL/SLL cohort (N = 9),0 n (%)
same,AE of clinical interest: Hemorrhage,r/r CLL/SLL cohort (N = 9),4 (44.4) n (%)
same,AE of clinical interest: Hepatotoxicity,r/r CLL/SLL cohort (N = 9),1 (11.1) n (%)
same,AE of clinical interest: Infections,r/r CLL/SLL cohort (N = 9),6 (66.7) n (%)
same,AE of clinical interest: Interstitial lung disease/pneumonitis,r/r CLL/SLL cohort (N = 9),0 n (%)
same,AE of clinical interest: Leukopenia,r/r CLL/SLL cohort (N = 9),3 (33.3) n (%)
same,AE of clinical interest: Neutropenia,r/r CLL/SLL cohort (N = 9),3 (33.3) n (%)
same,AE of clinical interest: Other hemorrhage,r/r CLL/SLL cohort (N = 9),4 (44.4) n (%)

# From paper PMC8177795 (Cancer Science, 2021)
